Assay results taken from patent publication US20150147385A1, “INTRAVENOUS SYNTHETIC CURCUMIN (S-CURCUMIN) FOR THE TREATMENT OF PROLIFERATIVE DISORDERS” (SignPath Pharma, Inc., priority 2013, published 2015).
Values after ≈ are worked out from the molar mass of the structure shown. Read-outs that look alike come from different tables or passages of the source.

Assays:
[1] = Solubilities of S-curcumin and C3-complex curcumin in different organic solvents; format: physicochemical; details: for solubility: organic solvent or mixture, read-out: Conc. (solubility)
Text: Comparison of PLGA C3-complex-curcumin vs PLGA S-curcumin indicated the following differences. The solubilities of 99.2% S-Curcumin in all four solvents. […] This confers improved manufacturing capability, and attributes to different pharmacokinetics and pharmacodynamics in in vivo settings (Table 1). [table]

[2] = system: breast cancer cell line MCF10ACA1H; test: Scratch assay (wound healing) in MCF10ACA1H; format: cell-based, human; details: 12 hour exposure

Solubility compared with C3 complex ([1]; normalized to equal concentrations, ethanol, ethyl acetate, acetone, acetonitrile): greater solubility | solubility ([1]; solvent acetone): 42300 µg/mL (≈ 115 mM) | solubility ([1]; solvent acetonitrile): 5440 µg/mL (≈ 14.8 mM) | solubility ([1]; solvent ethanol): 3800 µg/mL (≈ 10.3 mM) | solubility ([1]; solvent ethyl acetate): 10400 µg/mL (≈ 28.2 mM) | 1 g of solvent solubilize in solvent ([1]; solvent acetone): 23.6 mL | Physical appearance of solubility ([1]; solvent acetone): Fully | 1 g of solvent solubilize in solvent ([1]; solvent acetonitrile): 184 mL | Physical appearance of solubility ([1]; solvent acetonitrile): Partial | 1 g of solvent solubilize in solvent ([1]; solvent ethanol): 263 mL | Physical appearance of solubility ([1]; solvent ethanol): Partial | 1 g of solvent solubilize in solvent ([1]; solvent ethyl acetate): 96.2 mL | Physical appearance of solubility ([1]; solvent ethyl acetate): Partial
SMILES: COc1cc(C=CC(=O)CC(=O)C=Cc2ccc(O)c(OC)c2)ccc1O [S-curcumin, 1,7-bis(4-hydroxy-3-methoxyphenyl)-1,6-heptadiene-3,5-dione]
More effective than C3-curcumin in interfering with wound healing [2]: 30%
